Test results published in the supplement of paper PMC10307832.

What was measured:
Test in all cases: relative viability (nuclei count vs DMSO), 5 days (fraction); higher = more cells survive
H3255 = system: H3255
Procedure, shortened: (§1)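 Each reported value is a median over duplicate plates. It expresses relative viability: treated-well nuclei count divided by vehicle-well nuclei count. Lung cancer cell lines in 1536-well plates were dosed by pin tool a day after seeding, alone with one drug or with a fixed anchor-drug dose plus five library-drug doses (not always all listed) in √10 steps, and nuclei were counted after 5 days.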

RERF-LC-KJ = system: RERF-LC-KJ
Procedure, shortened: as §1

HCC-44 = system: HCC-44
Procedure, shortened: as §1

NCI-H520 = system: NCI-H520
Procedure, shortened: as §1

NCI-H2085 = system: NCI-H2085
Procedure, shortened: as §1

NCI-H1993 = system: NCI-H1993
Procedure, shortened: as §1

PC-14 = system: PC-14
Procedure, shortened: as §1

LOU-NH91 = system: LOU-NH91
Procedure, shortened: as §1

201T = system: 201T
Procedure, shortened: as §1

NCI-H2405 = system: NCI-H2405
Procedure, shortened: as §1

NCI-H2347 = system: NCI-H2347
Procedure, shortened: as §1

NCI-H647 = system: NCI-H647
Procedure, shortened: as §1

NCI-H3122 = system: NCI-H3122
Procedure, shortened: as §1

NCI-H2170 = system: NCI-H2170
Procedure, shortened: as §1

NCI-H1563 = system: NCI-H1563
Procedure, shortened: as §1

NCI-H2023 = system: NCI-H2023
Procedure, shortened: as §1

NCI-H1734 = system: NCI-H1734
Procedure, shortened: as §1

EPLC-272H = system: EPLC-272H
Procedure, shortened: as §1

COR-L23 = system: COR-L23
Procedure, shortened: as §1

NCI-H1650 = system: NCI-H1650
Procedure, shortened: as §1

NCI-H1793 = system: NCI-H1793
Procedure, shortened: as §1

**Q.** CC1(C)CCC(c2ccc(Cl)cc2)=C(CN2CCN(c3ccc(C(=O)NS(=O)(=O)c4ccc(N[C@H](CCN5CCOCC5)CSc5ccccc5)c(S(=O)(=O)C(F)(F)F)c4)cc3)CC2)C1 [Navitoclax] + CS(=O)(=O)CCNCc1ccc(-c2ccc3ncnc(Nc4ccc(OCc5cccc(F)c5)c(Cl)c4)c3c2)o1 [Lapatinib] (partner 2 µM) was tested. Which relative viability (H3255; first compound 0.005 µM) did it give?
**A.** 0.271

**Q.** What about the relative viability (H3255; first compound 0.01581 µM) of the same compound?
**A.** 0.258

**Q.** And the relative viability (H3255; first compound 0.05 µM)?
**A.** 0.226

**Q.** What about the relative viability (H3255; first compound 0.1581 µM) of the same compound?
**A.** 0.25

**Q.** And the relative viability (H3255; first compound 0.5 µM)?
**A.** 0.19

**Q.** And the relative viability (RERF-LC-KJ; first compound 0.005 µM)?
**A.** 0.857

**Q.** And the relative viability (RERF-LC-KJ; first compound 0.01581 µM)?
**A.** 0.809

**Q.** And the relative viability (RERF-LC-KJ; first compound 0.05 µM)?
**A.** 0.75

**Q.** And the relative viability (RERF-LC-KJ; first compound 0.1581 µM)?
**A.** 0.852

**Q.** And the relative viability (RERF-LC-KJ; first compound 0.5 µM)?
**A.** 0.884

**Q.** What about the relative viability (HCC-44; first compound 0.005 µM) of the same compound?
**A.** 0.888

**Q.** And the relative viability (HCC-44; first compound 0.01581 µM)?
**A.** 1.03

**Q.** And the relative viability (HCC-44; first compound 0.05 µM)?
**A.** 0.996

**Q.** And the relative viability (HCC-44; first compound 0.1581 µM)?
**A.** 0.971

**Q.** And the relative viability (HCC-44; first compound 0.5 µM)?
**A.** 1.04

**Q.** And the relative viability (NCI-H520; first compound 0.005 µM)?
**A.** 0.855

**Q.** And the relative viability (NCI-H520; first compound 0.01581 µM)?
**A.** 0.965

**Q.** What about the relative viability (NCI-H520; first compound 0.05 µM) of the same compound?
**A.** 0.967

**Q.** What about the relative viability (NCI-H520; first compound 0.1581 µM) of the same compound?
**A.** 0.763

**Q.** What about the relative viability (NCI-H520; first compound 0.5 µM) of the same compound?
**A.** 0.758

**Q.** And the relative viability (NCI-H2085; first compound 0.005 µM)?
**A.** 0.754

**Q.** What about the relative viability (NCI-H2085; first compound 0.01581 µM) of the same compound?
**A.** 0.895

**Q.** What about the relative viability (NCI-H2085; first compound 0.05 µM) of the same compound?
**A.** 0.692

**Q.** What about the relative viability (NCI-H2085; first compound 0.1581 µM) of the same compound?
**A.** 0.822

**Q.** And the relative viability (NCI-H2085; first compound 0.5 µM)?
**A.** 0.814

**Q.** And the relative viability (NCI-H1993; first compound 0.005 µM)?
**A.** 0.849

**Q.** What about the relative viability (NCI-H1993; first compound 0.01581 µM) of the same compound?
**A.** 0.855

**Q.** What about the relative viability (NCI-H1993; first compound 0.05 µM) of the same compound?
**A.** 0.756

**Q.** And the relative viability (NCI-H1993; first compound 0.1581 µM)?
**A.** 0.795

**Q.** And the relative viability (NCI-H1993; first compound 0.5 µM)?
**A.** 0.883

**Q.** What about the relative viability (PC-14; first compound 0.005 µM) of the same compound?
**A.** 0.343

**Q.** What about the relative viability (PC-14; first compound 0.01581 µM) of the same compound?
**A.** 0.343

**Q.** What about the relative viability (PC-14; first compound 0.05 µM) of the same compound?
**A.** 0.283

**Q.** And the relative viability (PC-14; first compound 0.1581 µM)?
**A.** 0.385

**Q.** And the relative viability (PC-14; first compound 0.5 µM)?
**A.** 0.338

**Q.** What about the relative viability (LOU-NH91; first compound 0.005 µM) of the same compound?
**A.** 0.802

**Q.** What about the relative viability (LOU-NH91; first compound 0.01581 µM) of the same compound?
**A.** 0.858

**Q.** And the relative viability (LOU-NH91; first compound 0.05 µM)?
**A.** 0.756

**Q.** And the relative viability (LOU-NH91; first compound 0.1581 µM)?
**A.** 0.681

**Q.** What about the relative viability (LOU-NH91; first compound 0.5 µM) of the same compound?
**A.** 0.549

**Q.** And the relative viability (201T; first compound 0.005 µM)?
**A.** 1.06

**Q.** And the relative viability (201T; first compound 0.01581 µM)?
**A.** 1.12

**Q.** What about the relative viability (201T; first compound 0.05 µM) of the same compound?
**A.** 0.992

**Q.** And the relative viability (201T; first compound 0.1581 µM)?
**A.** 1.03

**Q.** What about the relative viability (201T; first compound 0.5 µM) of the same compound?
**A.** 1.06

**Q.** And the relative viability (NCI-H2405; first compound 0.005 µM)?
**A.** 1.03

**Q.** What about the relative viability (NCI-H2405; first compound 0.01581 µM) of the same compound?
**A.** 1.29

**Q.** What about the relative viability (NCI-H2405; first compound 0.05 µM) of the same compound?
**A.** 1.19

**Q.** What about the relative viability (NCI-H2405; first compound 0.1581 µM) of the same compound?
**A.** 1.02

**Q.** And the relative viability (NCI-H2405; first compound 0.5 µM)?
**A.** 0.927

**Q.** What about the relative viability (NCI-H2347; first compound 0.005 µM) of the same compound?
**A.** 0.957

**Q.** And the relative viability (NCI-H2347; first compound 0.01581 µM)?
**A.** 1.09

**Q.** And the relative viability (NCI-H2347; first compound 0.05 µM)?
**A.** 0.753

**Q.** What about the relative viability (NCI-H2347; first compound 0.1581 µM) of the same compound?
**A.** 0.765

**Q.** And the relative viability (NCI-H2347; first compound 0.5 µM)?
**A.** 0.923

**Q.** What about the relative viability (NCI-H647; first compound 0.005 µM) of the same compound?
**A.** 0.888

**Q.** What about the relative viability (NCI-H647; first compound 0.01581 µM) of the same compound?
**A.** 1.05

**Q.** What about the relative viability (NCI-H647; first compound 0.05 µM) of the same compound?
**A.** 1.51

**Q.** What about the relative viability (NCI-H647; first compound 0.1581 µM) of the same compound?
**A.** 1.1

**Q.** And the relative viability (NCI-H647; first compound 0.5 µM)?
**A.** 0.918

**Q.** What about the relative viability (NCI-H3122; first compound 0.005 µM) of the same compound?
**A.** 0.998

**Q.** What about the relative viability (NCI-H3122; first compound 0.01581 µM) of the same compound?
**A.** 0.991

**Q.** What about the relative viability (NCI-H3122; first compound 0.05 µM) of the same compound?
**A.** 1.03

**Q.** What about the relative viability (NCI-H3122; first compound 0.1581 µM) of the same compound?
**A.** 0.892

**Q.** And the relative viability (NCI-H3122; first compound 0.5 µM)?
**A.** 1.02

**Q.** What about the relative viability (NCI-H2170; first compound 0.005 µM) of the same compound?
**A.** 0.275

**Q.** What about the relative viability (NCI-H2170; first compound 0.01581 µM) of the same compound?
**A.** 0.283

**Q.** And the relative viability (NCI-H2170; first compound 0.05 µM)?
**A.** 0.312

**Q.** What about the relative viability (NCI-H2170; first compound 0.1581 µM) of the same compound?
**A.** 0.285

**Q.** What about the relative viability (NCI-H2170; first compound 0.5 µM) of the same compound?
**A.** 0.26

**Q.** What about the relative viability (NCI-H1563; first compound 0.005 µM) of the same compound?
**A.** 1.08

**Q.** What about the relative viability (NCI-H1563; first compound 0.01581 µM) of the same compound?
**A.** 1.23

**Q.** And the relative viability (NCI-H1563; first compound 0.05 µM)?
**A.** 0.877

**Q.** What about the relative viability (NCI-H1563; first compound 0.1581 µM) of the same compound?
**A.** 1.05

**Q.** What about the relative viability (NCI-H1563; first compound 0.5 µM) of the same compound?
**A.** 1.44

**Q.** What about the relative viability (NCI-H2023; first compound 0.005 µM) of the same compound?
**A.** 0.953

**Q.** And the relative viability (NCI-H2023; first compound 0.01581 µM)?
**A.** 1.13

**Q.** What about the relative viability (NCI-H2023; first compound 0.05 µM) of the same compound?
**A.** 0.685

**Q.** And the relative viability (NCI-H2023; first compound 0.1581 µM)?
**A.** 0.927

**Q.** What about the relative viability (NCI-H2023; first compound 0.5 µM) of the same compound?
**A.** 0.816

**Q.** And the relative viability (NCI-H1734; first compound 0.005 µM)?
**A.** 1.09

**Q.** And the relative viability (NCI-H1734; first compound 0.01581 µM)?
**A.** 1.16

**Q.** What about the relative viability (NCI-H1734; first compound 0.1581 µM) of the same compound?
**A.** 0.973

**Q.** And the relative viability (NCI-H1734; first compound 0.5 µM)?
**A.** 1.09

**Q.** And the relative viability (EPLC-272H; first compound 0.005 µM)?
**A.** 0.904

**Q.** What about the relative viability (EPLC-272H; first compound 0.1581 µM) of the same compound?
**A.** 0.906

**Q.** What about the relative viability (EPLC-272H; first compound 0.5 µM) of the same compound?
**A.** 0.881

**Q.** And the relative viability (COR-L23; first compound 0.005 µM)?
**A.** 0.919

**Q.** And the relative viability (COR-L23; first compound 0.01581 µM)?
**A.** 1.25

**Q.** What about the relative viability (COR-L23; first compound 0.05 µM) of the same compound?
**A.** 1.33

**Q.** What about the relative viability (COR-L23; first compound 0.1581 µM) of the same compound?
**A.** 0.705

**Q.** What about the relative viability (COR-L23; first compound 0.5 µM) of the same compound?
**A.** 0.922

**Q.** And the relative viability (NCI-H1650; first compound 0.005 µM)?
**A.** 0.818

**Q.** And the relative viability (NCI-H1650; first compound 0.01581 µM)?
**A.** 1.07

**Q.** And the relative viability (NCI-H1650; first compound 0.05 µM)?
**A.** 0.88

**Q.** And the relative viability (NCI-H1650; first compound 0.1581 µM)?
**A.** 1.02

**Q.** And the relative viability (NCI-H1650; first compound 0.5 µM)?
**A.** 0.957

**Q.** What about the relative viability (NCI-H1793; first compound 0.005 µM) of the same compound?
**A.** 0.601

**Q.** And the relative viability (NCI-H1793; first compound 0.01581 µM)?
**A.** 0.779

**Q.** And the relative viability (NCI-H1793; first compound 0.05 µM)?
**A.** 0.467

**Q.** What about the relative viability (NCI-H1793; first compound 0.1581 µM) of the same compound?
**A.** 0.843

**Q.** And the relative viability (NCI-H1793; first compound 0.5 µM)?
**A.** 0.557
